The assay has as its target T1, 2,5-DKG reductase (Corynebacterium sp., UniProt P06632).
T1 construct: resuspension in 650 ml Tris buffer containing 2 mg/ml lyozyme to release intracellular proteins; endogenous in cells; host or cells: Corynebacterium sp; ATCC 31090 (enzyme purified in house from the cell paste)
Kind of assay: 2,5-DKG reductase assay: kinetic parameters, substrate specificity, cofactor requirements, pH optimum. The conditions noted are these: sodium phosphate buffer 150 mM, pH 6.4, 25° C., enzyme 10 μg, read-out: Michaelis constants (Km). It is filed as biochemical, Corynebacterium sp. ATCC 31090. An excerpt:
The following assay conditions were used to determine kinetic parameters: […]

Structures are written as SMILES. Where two headings read alike, the source gives them in different places.

T1 sequence (P06632 whole entry): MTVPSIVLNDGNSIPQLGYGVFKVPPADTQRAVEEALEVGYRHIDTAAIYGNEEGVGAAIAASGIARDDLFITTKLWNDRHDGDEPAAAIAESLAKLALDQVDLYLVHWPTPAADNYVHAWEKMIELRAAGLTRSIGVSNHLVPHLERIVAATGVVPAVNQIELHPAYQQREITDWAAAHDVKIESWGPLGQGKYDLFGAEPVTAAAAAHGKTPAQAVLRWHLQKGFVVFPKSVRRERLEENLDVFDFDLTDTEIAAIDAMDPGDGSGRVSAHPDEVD

For orientation: Km means the concentration of substrate that gives half-maximal velocity. Consider `O=C(O)C(=O)[C@@H](O)[C@H](O)C(=O)CO` [2,5-DKG, 2,5-diketogluconic acid], for which, where the note is “2,5-DKG 0.43-43 mM”, the Km is 15.5 mM.

As for `NC(=O)C1=CN([C@@H]2O[C@H](COP(=O)(O)OP(=O)(O)OC[C@H]3O[C@@H](n4cnc5c(N)ncnc54)[C@H](OP(=O)(O)O)[C@@H]3O)[C@@H](O)[C@H]2O)C=CC1` [NADPH], the Km (NADPH 11-300 μM) was found to be 0.0337 mM.

The values above are taken from US5004690A, “Ascorbic acid intermediates and process enzymes” (Genetech, Inc., priority 1989, dated 1991).
